# From patent US20160215348A1, “GENE EXPRESSION BIOMARKERS AND THEIR USE FOR DIAGNOSTIC AND PROGNOSTIC APPLICATION IN PATIENTS POTENTIALLY IN NEED OF HDAC INHIBITOR TREATMENT” (4SC AG, priority 2013, published 2016)
# What was measured:
# ZFP64 = ZFP64 fold change in HepG2, whole blood and PBMCs of a healthy donor (FIG. 4d); assay type: cell-based, human; conditions: HepG2, whole blood, PBMC; resminostat 5 μM (combination: + sorafenib 5 μM); vs DMSO control
# Experimental: For comparison reasons, the siRNA experiment (ZFP64 knockdown) on HepG2 cells is shown. The samples are compared to a DMSO control and the fold change is determined with the exception of the siRNA samples, which are compared to the resminostat sample.
# To determine RNA expression levels of ZFP64 in different cancer cell lines and PBMC, the cell membranes were chemically disrupted with a buffer containing guanidine isothiocycanate, which lyses the cells and supports the binding of RNA to a silica membrane and RNA was extracted via a filter-based spin column.
# [1] = Dose escalation 100-800 mg in cancer patients, dose-limiting toxicity; assay type: in vivo, human; conditions: highest dose group (800 mg); one patient within the first 3 patients
# Experimental: HDAC enzyme activity, H4 Histone acetylation and gene expression of a group of genes were measured in the dose groups 100 mg, 200 mg, 400 mg, 600 mg and 800 mg. Each group consisted of 3 patients with different types of tumors. The highest dose group consisted of 6 patients due to a dose-limiting toxicity [DLT] […] The treatment cycles were as detailed for the SAPHIRE, SHELTER and SHORE clinical trials described herein below.
# HIST2H4A; HIST2H4B = test: qPCR relative expression (vs cycle 1, day 1, hour 0) in patients' whole blood; assay type: in vivo, human
# Experimental: (§1) 2.5 ml whole blood from patients was collected in PAXgene™ tubes (BD Biosciences) that contain chemicals to lyse the erythrocytes, stabilize RNA from degradation by RNases and minimize ex vivo changes in gene expression. The samples were incubated at 20° C. to 25° C. for 2 hours and then frozen at −20° C. until purification of total RNA.
# (§2) Total RNA was isolated from the whole blood samples stabilized in PAXgene™ buffer using a spin column based technique suitable for whole blood samples (like PAXgene™ Blood miRNA Kit or PAXgene™ Blood RNA Kit from Qiagen) according to the manufacturer's instructions. The purification began with a centrifugation step to pellet nucleic acids in the (PAXgene™ Blood RNA) tube. The resuspended pellet was incubated in buffers, optimized for maintenance of RNA stability together with proteinase K to bring about protein digestion. An additional centrifugation through the PAXgene™ Shredder spin column was carried out to homogenize the cell lysate and remove residual cell debris, and the supernatant of the flow-through fraction was transferred to a fresh microcentrifuge tube. Ethanol was added to adjust binding conditions, and the lysate was applied to a PAXgene™ RNA spin column. During a brief centrifugation, RNA was selectively bound to the PAXgene™ silica membrane as contaminants pass through. Remaining contaminants were removed in several efficient wash steps. Between the first and second wash steps, the membrane was treated with DNase I, as described herein below in 1.3 to remove trace amounts of bound DNA. After the wash steps, RNA was eluted in nuclease free water and heat-denatured.
# (§3) The High-Capacity cDNA Reverse Transcription Kit (Applied Biosystems) was used for reverse transcription of total RNA into single stranded cDNA with the aid of random hexamer primers according to the manufacturer's instructions. Briefly, for the reaction mix total RNA was mixed with random primers in excess, 4 mM dNTP Mix, 2.5 U/reaction, reverse transcriptase and nuclease free water. The reverse transcription took place in a thermal cycler under the following conditions: 25° C. for 10 min, 37° C. for 120 min, 85° C. for 5 min, followed by 4° C. for cooling down the reaction. The reverse transcription can be done in principle as well with other reverse transcriptases, primers and temperature protocols. Whenever possible, 250 ng total RNA were reverse transcribed if not available, lower amounts were used.
# (§4) Custom TaqMan® Arrays (Applied Biosystems) in Format 16 were designed for the gene expression analysis of biomarkers of the present invention and housekeeping genes as outlined in table 4. These arrays allow for qPCR analysis of 8 samples per card. Of course, all reactions can be done as well by conventional qPCR analysis with specific primers.
# (§5) The reaction mix was transferred into the reaction chambers by centrifuging twice for 1 minute each at 330 g and 4° C. After sealing, the microfluidic cards were run on an AB7900HT instrument (Applied Biosystems). The software SDS 2.4 (Applied Biosystems) was employed for instrument control, data acquisition and raw data analysis. The plates were run in Relative Quantification (ΔΔCt) mode, and the following temperature profile was used:
# (§6) This analysis was carried out for each patient separately. The first sample (cycle 1, day 1, hour 0) was used as the reference sample. The ‘exprs’ value indicates relative expression levels (fold change values) for individual samples.
# (§7) Table 5 contains the median expression level values for treatment day 5 (cycle 1, day 5, hours 0, 2, and 5) at a daily dose of 600 mg or 800 mg Resminostat mesylate salt is given below.
# GAPDH = test: as above; assay type: in vivo, human
# Experimental: as §1, §2, §3, §4, §5, §6, §7
# DPP3 = test: as above; assay type: in vivo, human
# Experimental: as §1, §2, §3, §4, §5, §6, §7
# KDELC2 = test: as above; assay type: in vivo, human
# Experimental: as §1, §2, §3, §4, §5, §6, §7
# 18S = test: as above; assay type: in vivo, human
# Experimental: as §1, §2, §3, §4, §5, §6, §7
# [2] = cycle 1, day 5, hour 0, 600 mg dose
# [3] = cycle 1, day 5, hour 0, 800 mg dose
# [4] = cycle 1, day 5, hour 2, 600 mg dose
# [5] = cycle 1, day 5, hour 2, 800 mg dose
# [6] = cycle 1, day 5, hour 5, 600 mg dose
# [7] = cycle 1, day 5, hour 5, 800 mg dose
smiles,measurement,setting,value
"CN(C)Cc1ccc(S(=O)(=O)n2ccc(/C=C/C(=O)NO)c2)cc1 [resminostat, (E)-3-(1-(4-((dimethylamino)methyl)phenylsulfonyl)-1H-pyrrol-3-yl)-N-hydroxyacrylamide]","Regulation of ZFP64, fold change (FIG. 4d)",ZFP64,down-regulation
same,Dose-limiting toxicity [DLT],[1],fatigue and nausea grade 3
same,"Median expression level, HIST2H4A; HIST2H4B",HIST2H4A; HIST2H4B; [2],0.875
same,"Median expression level, HIST2H4A; HIST2H4B",HIST2H4A; HIST2H4B; [3],1.530
same,"Median expression level, HIST2H4A; HIST2H4B",HIST2H4A; HIST2H4B; [4],2.111
same,"Median expression level, HIST2H4A; HIST2H4B",HIST2H4A; HIST2H4B; [5],3.345
same,"Median expression level, HIST2H4A; HIST2H4B",HIST2H4A; HIST2H4B; [6],2.042
same,"Median expression level, HIST2H4A; HIST2H4B",HIST2H4A; HIST2H4B; [7],2.821
same,"Median expression level, GAPDH",GAPDH; [2],1.092
same,"Median expression level, GAPDH",GAPDH; [3],1.136
same,"Median expression level, GAPDH",GAPDH; [4],1.201
same,"Median expression level, GAPDH",GAPDH; [5],1.362
same,"Median expression level, GAPDH",GAPDH; [6],1.296
same,"Median expression level, GAPDH",GAPDH; [7],1.228
same,"Median expression level, DPP3",DPP3; [2],1.121
same,"Median expression level, DPP3",DPP3; [3],1.457
same,"Median expression level, DPP3",DPP3; [4],0.767
same,"Median expression level, DPP3",DPP3; [5],0.912
same,"Median expression level, DPP3",DPP3; [6],0.267
same,"Median expression level, DPP3",DPP3; [7],0.395
same,"Median expression level, KDELC2",KDELC2; [2],0.909
same,"Median expression level, KDELC2",KDELC2; [3],1.141
same,"Median expression level, KDELC2",KDELC2; [4],0.544
same,"Median expression level, KDELC2",KDELC2; [5],0.509
same,"Median expression level, KDELC2",KDELC2; [6],0.215
same,"Median expression level, KDELC2",KDELC2; [7],0.215
same,"Median expression level, 18S",18S; [2],0.872
same,"Median expression level, 18S",18S; [3],0.635
same,"Median expression level, 18S",18S; [4],0.871
same,"Median expression level, 18S",18S; [5],0.682
same,"Median expression level, 18S",18S; [6],0.778
same,"Median expression level, 18S",18S; [7],0.550
